# Test results as given in US20260159512A1, “BCAT2 INHIBITORS” (AGIOS PHARMACEUTICALS, INC., priority 2021, published 2026).
# How the values were obtained:
# BCAT2 [1] = target: T1, BCAT2 (Homo sapiens, UniProt O15382); assay: BCAT2 in vitro enzyme inhibition assay (resazurin/diaphorase-coupled fluorescence); assay type: biochemical; parameters: key to BCAT2 Enzyme Inhibition: A: less than or equal to 0.100 μM; B: greater than 0.100 and less than or equal to 0.500 μM; C: greater than 0.500 and less than or equal to 1.000 μM; d: greater than 1.000 μM; E: no fit; conditions: average where tested multiple times
# T1 sequence (O15382 28-392): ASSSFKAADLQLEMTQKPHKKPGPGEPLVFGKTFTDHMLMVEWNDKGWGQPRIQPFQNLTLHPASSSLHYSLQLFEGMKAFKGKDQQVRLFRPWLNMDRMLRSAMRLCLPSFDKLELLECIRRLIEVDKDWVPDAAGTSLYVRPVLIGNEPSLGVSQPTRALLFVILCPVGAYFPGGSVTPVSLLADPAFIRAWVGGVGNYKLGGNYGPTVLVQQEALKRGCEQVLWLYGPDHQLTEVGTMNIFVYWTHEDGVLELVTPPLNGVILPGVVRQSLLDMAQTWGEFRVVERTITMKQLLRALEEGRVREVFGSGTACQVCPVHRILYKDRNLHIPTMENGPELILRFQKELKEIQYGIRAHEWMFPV
# In short: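 Coupled fluorescence readout: glutamate formed from L-leucine/α-ketoglutarate transamination drives GDH/NAD/diaphorase reduction of resazurin (Ex 540/Em 590). Human BCAT2 was first exposed 1 h at room temperature to compound, top final 100 μM in 3-fold, 10-point series; substrate reaction ran 1 h before SDS quench, in technical duplicate with DMSO max and enzyme-free min controls.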
# BCAT2 [2] = target: T1, BCAT2; assay: BCAT2 in vitro cell inhibition using engineered A549 cells (KMV cell assay, 13C6-KMV by LC-MS/MS); assay type: cell-based; parameters: The result was an engineered A549 cell line that expressed endogenous BCAT2; endogenous in cells; host or cells: A549 cells with MUT and BCAT1 knocked out by CRISPR/CAS9; key to BCAT2 Cell Inhibition: A: less than or equal to 0.100 μM; B: greater than 0.100 and less than or equal to 0.500 μM; C: greater than 0.500 and less than or equal to 1.000 μM; d: greater than 1.000 μM; E: no fit; conditions: average where tested multiple times
IC50 (BCAT2 [1]) [nM],BCAT2 Cell Inhibition (BCAT2 [2]),IC50 (BCAT2 [2]) [nM],BCAT2 Enzyme Inhibition (BCAT2 [1]),SMILES
> 1000,E,–,–,"CC(C)(Cc1nc2cnc(-n3nccn3)cc2n1[C@@H]1CCC[C@H](NC(=O)c2ccc(Cl)s2)C1)C(=O)O [Example 190, 3-(1-((1R,3S)-3-(5-chlorothiophene-2-carboxamido)cyclohexyl)-6-(2H-1,2,3-triazol-2-yl)-1H-imidazo[4,5-c]pyridin-2-yl)-2,2-dimethylpropanoic acid]"
500 to 1000,E,–,–,"CO[C@@H]1C[C@@H](NC(=O)c2ncc(Cl)s2)C[C@@H](n2c(CC(C)C)nc3cnc(-c4ncccn4)cc32)C1 [Example 436, 5-chloro-N-((1S,3R,5R)-3-(2-isobutyl-6-(pyrimidin-2-yl)-1H-imidazo[4,5-c]pyridin-1-yl)-5-methoxycyclohexyl)thiazole-2-carboxamide]"
100 to 500,–,> 1000,–,"CN1C[C@@H](NC(=O)c2ccc(Cl)s2)C[C@@H](n2c(-c3ccccc3F)nc3cnc(-c4nc[nH]n4)cc32)C1 [Example 265, 5-chloro-N-((3S,5R)-5-(2-(2-fluorophenyl)-6-(1H-1,2,4-triazol-3-yl)-1H-imidazo[4,5-c]pyridin-1-yl)-1-methylpiperidin-3-yl)thiophene-2-carboxamide]"
> 1000,E,–,–,"CO[C@@H]1C[C@@H](NC(=O)c2ncc(Cl)s2)C[C@@H](n2c(CC(C)(C)C)nc3cnc(-c4ccccn4)cc32)C1 (single isomer, unassigned) [Example 441]"
> 1000,E,–,–,"CNC(=O)c1cc2nc(CC(C)C)n([C@H]3CCC[C@@H](NC(=O)c4ncc(Cl)s4)[C@@H]3O)c2cn1 [Example 279, 5-chloro-N-((1R,2S,3S)-2-hydroxy-3-(2-isobutyl-6-(methylcarbamoyl)-3H-imidazo[4,5-c]pyridin-3-yl)cyclohexyl)thiazole-2-carboxamide]"
500 to 1000,E,–,–,"COc1cccc(F)c1-c1nc2cnc(-c3nc[nH]n3)cc2n1[C@H]1CCCC[C@@H](NC(=O)c2ccc(Cl)s2)[C@@H]1O [Example 406, 5-chloro-N-((1R,2S,3S)-3-(2-(2-fluoro-6-methoxyphenyl)-6-(1H-1,2,4-triazol-3-yl)-1H-imidazo[4,5-c]pyridin-1-yl)-2-hydroxycycloheptyl)thiophene-2-carboxamide]"
> 1000,E,–,–,"Cn1ccc(-c2nc3cnc(-n4ccnn4)cc3n2[C@@H]2CCC[C@H](NC(=O)c3ncc(C(F)F)s3)C2)n1 [Example 42, 5-(difluoromethyl)-N-((1S,3R)-3-(2-(1-methyl-1H-pyrazol-3-yl)-6-(1H-1,2,3-triazol-1-yl)-1H-imidazo[4,5-c]pyridin-1-yl)cyclohexyl)thiazole-2-carboxamide]"
> 1000,E,–,–,"Cc1cnn(-c2cc3c(cn2)nc(CC(C)C)n3[C@H]2CCC[C@@H](NC(=O)c3ncc(Cl)s3)[C@@H]2O)n1 [Example 244, 5-chloro-N-((1R,2S,3S)-2-hydroxy-3-(2-isobutyl-6-(4-methyl-2H-1,2,3-triazol-2-yl)-1H-imidazo[4,5-c]pyridin-1-yl)cyclohexyl)thiazole-2-carboxamide]"
> 1000,E,–,–,"CC(C)Cc1nc2cnc(-c3ccccc3CC#N)cc2n1[C@@H]1CCC[C@H](NC(=O)c2ncc(Cl)s2)C1 [Example 333, 5-chloro-N-((1S,3R)-3-(6-(2-(cyanomethyl)phenyl)-2-isobutyl-1H-imidazo[4,5-c]pyridin-1-yl)cyclohexyl)thiazole-2-carboxamide]"
> 1000,–,> 1000,–,"N#Cc1ccc(-c2nc3cnc(-c4nc[nH]n4)cc3n2[C@@H]2CCC[C@H](NC(=O)c3ccc(Cl)s3)C2)c(F)c1 [Example 353, 5-chloro-N-((1S,3R)-3-(2-(4-cyano-2-fluorophenyl)-6-(1H-1,2,4-triazol-3-yl)-1H-imidazo[4,5-c]pyridin-1-yl)cyclohexyl)thiophene-2-carboxamide]"
≤ 100,–,≤ 100,–,"CO[C@@H]1C[C@@H](NC(=O)c2ncc(Cl)s2)C[C@@H](n2c(-c3ccccc3C#N)nc3cnc(-c4nc[nH]n4)cc32)C1 (stereo in doubt) [Example 446, 5-chloro-N-((1S,3R,5R)-3-(2-(2-cyanophenyl)-6-(1H-1,2,4-triazol-3-yl)-1H-imidazo[4,5-c]pyridin-1-yl)-5-methoxycyclohexyl)thiazole-2-carboxamide]"
> 1000,E,–,–,"CC(C)(C)Cc1nc2cnc(-n3nccn3)cc2n1[C@H]1CCC[C@@H](NC(=O)c2ccc(Cl)s2)[C@@H]1O [Example 388, 5-chloro-N-((1R,2S,3S)-2-hydroxy-3-(2-neopentyl-6-(2H-1,2,3-triazol-2-yl)-1H-imidazo[4,5-c]pyridin-1-yl)cyclohexyl)thiophene-2-carboxamide]"
500 to 1000,E,–,–,"CC(C)Cc1nc2cnc(-c3ccn(C(F)F)n3)cc2n1[C@H]1CCC[C@@H](NC(=O)c2ncc(Cl)s2)[C@@H]1O [Example 229, 5-chloro-N-((1R,2S,3S)-3-(6-(1-(difluoromethyl)-1H-pyrazol-3-yl)-2-isobutyl-1H-imidazo[4,5-c]pyridin-1-yl)-2-hydroxycyclohexyl)thiazole-2-carboxamide]"
100 to 500,–,500 to 1000,–,"O=C(N[C@@H]1CCC[C@H](n2c(-c3ccccc3F)nc3cnc(-c4ccn[nH]4)cc32)[C@H]1O)c1ncc(Cl)s1 [Example 239, 5-chloro-N-((1R,2S,3S)-3-(2-(2-fluorophenyl)-6-(1H-pyrazol-5-yl)-1H-imidazo[4,5-c]pyridin-1-yl)-2-hydroxycyclohexyl)thiazole-2-carboxamide]"
–,E,–,E,"CO[C@H]1[C@@H](NC(=O)c2ncc(Cl)s2)CCC[C@H]1n1c(-c2ccccc2F)nc2cnc(-c3nc[nH]n3)cc21 [Example 433, 5-chloro-N-((1S,2S,3R)-3-(2-(2-fluorophenyl)-6-(1H-1,2,4-triazol-3-yl)-1H-imidazo[4,5-c]pyridin-1-yl)-2-methoxycyclohexyl)thiazole-2-carboxamide]"
100 to 500,–,> 1000,–,"CO[C@H]1C[C@H](NC(=O)c2ccc(Cl)s2)C[C@H](n2c(-c3ccccc3F)nc3cnc(-c4nc[nH]n4)cc32)C1 (stereo in doubt) [Example 411, 5-chloro-N-((1R,3S,5S)-3-(2-(2-fluorophenyl)-6-(1H-1,2,4-triazol-3-yl)-1H-imidazo[4,5-c]pyridin-1-yl)-5-methoxycyclohexyl)thiophene-2-carboxamide]"
100 to 500,–,> 1000,–,"CC(C)(C)Cc1nc2cnc(-c3ccccn3)cc2n1[C@H]1CCC[C@@H](NC(=O)c2ncc(Cl)s2)[C@@H]1O [Example 390, 5-chloro-N-((1R,2S,3S)-2-hydroxy-3-(2-neopentyl-6-(pyridin-2-yl)-1H-imidazo[4,5-c]pyridin-1-yl)cyclohexyl)thiazole-2-carboxamide]"
100 to 500,–,100 to 500,–,"O=C(N[C@@H]1C[C@@H](O)C[C@H](n2c(-c3ccccc3F)nc3cnc(-c4ccccn4)cc32)C1)c1ncc(Cl)s1 [Example 253, 5-chloro-N-((1S,3R,5R)-3-(2-(2-fluorophenyl)-6-(pyridin-2-yl)-1H-imidazo[4,5-c]pyridin-1-yl)-5-hydroxycyclohexyl)thiazole-2-carboxamide]"
> 1000,E,–,–,"CC(C)Cc1nc2cnc(-n3nccn3)cc2n1[C@@H]1COC[C@H](NC(=O)c2ccc(Cl)s2)C1 (single isomer, unassigned) [Example 140]"
100 to 500,–,> 1000,–,"O=C(N[C@@H]1C[C@@H](O)C[C@H](n2c(-c3ccccc3F)nc3cnc(-c4ncco4)cc32)C1)c1ncc(Cl)s1 [Example 261, 5-chloro-N-((1S,3R,5R)-3-(2-(2-fluorophenyl)-6-(oxazol-2-yl)-1H-imidazo[4,5-c]pyridin-1-yl)-5-hydroxycyclohexyl)thiazole-2-carboxamide]"
> 1000,E,–,–,"CO[C@H]1C[C@H](NC(=O)c2ncc(Cl)s2)C[C@H](n2c(-c3ccccc3F)nc3cnc(-n4cncn4)cc32)C1 (stereo in doubt) [Example 415, 5-chloro-N-((1R,3S,5S)-3-(2-(2-fluorophenyl)-6-(1H-1,2,4-triazol-1-yl)-1H-imidazo[4,5-c]pyridin-1-yl)-5-methoxycyclohexyl)thiazole-2-carboxamide]"
100 to 500,–,> 1000,–,"CO[C@@H]1C[C@@H](NC(=O)c2ncc(Cl)s2)C[C@@H](n2c(-c3ccccc3F)nc3cnc(-c4nc[nH]n4)cc32)C1 (single isomer, unassigned) [Example 219]"
≤ 100,–,500 to 1000,–,"CC(C)C(O)c1nc2cnc(-c3nc[nH]n3)cc2n1[C@@H]1CCC[C@H](NC(=O)c2ncc(Cl)s2)C1 (single isomer, unassigned) [Example 182]"
